The source of these data is patent US8541442B2, “Indole derivatives as anticancer agents” (Janssen Pharmaceutica N.V., priority 2009, dated 2013).

In series [1] the test system is Male NMRI mice. The series is described as follows: Ro-4-1284 antagonism in mice. Format: in vivo. The following applies: Ro-4-1284 antagonism test in mice. How it is done:
The test is a modification of a procedure described by Colpaert et al. (1975).^3 Male NMRI mice (22±3 g) were housed in macrolon observation cages (L×W×H: 11×12×17 cm; n=3 per cage). At the start of the experiments immediately before test compound administration, the initial body temperature of the mice was measured with a precision of 0.1° C. by inserting the thermo-sensitive probe (1.0 mm diameter) of an electric thermometer (Comark) to a constant depth of 3 cm into the esophagus until a stable reading was obtained. The right eye pupil diameter was measured with a graduated microscope and expressed in 1/24 mm units. Fifteen min after test compound administration, the mice were challenged with Ro-4-1284 (10 mg/kg, s.c.). Ro-4-1284 is a reserpine-like vesicular monoamine transport (VMAT-2) inhibitor, which rapidly depletes secretory vesicles.^3,4 Fifteen, 30 and 60 min after challenge, the mice were scored for palpebral opening (0, 1, 2, 3, 4, 5) and locomotor activity (−1, 0, 1, 2, 3). At the 60-min interval, immediately after the scoring of overt behavior, the right eye pupil diameter and the esophageal temperature were measured again. Abnormal phenomena such as intensive sniffing, chewing, rearing, hyperemia, piloerection, salivation, tremors, convulsions and death were noted (the latter phenomena were also noted when occurring before Ro-4-1284 administration). Criteria for drug-induced effects: reversal of ptosis: palpebral opening score >1 at 15, 30 or 60 min (2.7, 0.5 and 0% false positive controls, respectively; n>350); induction of prostration: score −1 for locomotion at 15, 30 or 60 min (never observed in controls); reversal of hypomotility: score >0 for locomotion at 15, 30 and 60 min (2.2, 0.8 and 0% false positive controls, respectively); reversal of miosis: pupil diameter >5 units at 60 min (0.8% false positives); potentiation of hypothermia: temperature decrease (over the 1-h time interval)>9.0° C. (1.4% false positives); reversal of hypothermia: temperature decrease <3.0° C. (1.8% false positives).
According to the standard procedure, R0-4-1284 is injected 15 min following subcutaneous or oral administration and observations start 15 min later. Doses are initially given to 3 animals. When at least 2 out of the 3 animals show activity for at least one of the observations, the compound is considered active.

Series [2] has as its system colorectal cancer cell line HCT116. Briefly: Alamar Blue cell proliferation assay, HCT116. Particulars: for IC50: Homo sapiens, HCT-116, HCT116 cells, read-out: HCT116 cell proliferation inhibition pIC50 (converted). Format: cell-based. The method, then:
(§1) For experiments in 384 wells plates the cells were seeded at a density of 5×10^3 cells/ml in Falcon 384-well culture plates (Life Technologies, Merelbeke, Belgium), black with clear bottom, in 45 μl culture medium. Cells were allowed to adhere to plastic for 24 hr. The tested compound was pre-diluted (1/50 in culture medium) and 5 μl pre-diluted compound was added to the wells. Following 4-day incubation, 10 μl of the Alamar Blue solution was added to each well and the cells were further incubated for 5 hrs (A2780) at 37° C. The fluorescence intensity was measured for each well with a Fluorescence plate reader (Fluorskan, Labsystems, 540 nm excitation and 590 nm emission)
(§2) The antiproliferative activity was calculated as percentage of remaining viable cells in treated versus control (untreated cells) conditions. Within an experiment, the result for each experimental condition is the mean of 3 replicate wells. When appropriate, the experiments were repeated to establish full concentration-response curves. When appropriate, IC50-values (concentration of the drug, needed to reduce cell growth to 50% of the control) were computed using probit analysis for graded data (Finney, D. J., Probit Analyses, 2nd Ed. Chapter 10, Graded Responses, Cambridge University Press, Cambridge 1962). Herein the effects of test compounds are expressed as pIC50 (the negative log value of the IC50-value (M)) (see Table 5A).
(§3) Compounds were also tested according to the above protocol but using other cell lines: colorectal cancer cell line HCT116, non-small cell lung cancer cell line H1299, human prostate cancer cell line DU145.
In general terms: Alamar Blue is a resazurin reagent that responds to reducing activity.

The test system of series [3] is p53 in A2780 cells. Briefly: p53 ELISA (preservation of p53 in A2780 cells). It counts as cell-based, human. Particulars: 16 hours treatment; for minimal effective concentration: Homo sapiens, A2780, 16 h, read-out: p53-elisa LAD (lowest dose giving at least 140% of the value for p53 present in the control). How it is done:
The capacity of the present compounds to preserve p53 in A2780 cells was measured with the p53 enzyme linked immunosorbent assay. The p53 assay is a “sandwich” enzyme immunoassay employing two polyclonal antibodies. A polyclonal antibody, specific for the p53 protein, has been immobilized onto the surface of the plastic wells. Any p53 present in the sample to be assayed will bind to the capture antibody. The biotinylated detector polyclonal antibody also recognizes p53 protein, and will bind to any p53, which has been retained by the capture antibody. The detector antibody, in turn, is bond by horseradish peroxidase-conjugated streptavidin. The horseradish peroxidase catalyses the conversion of the chromogenic substrate o-phenylene diamine, the intensity of which is proportional to the amount of p53 protein bond to the plate. The colored reaction product is quantified using a spectrophotometer. Quantitation is achieved by the construction of a standard curve using known concentrations of purified recombinant HIS tagged p53 protein (see example C.1.).
A2780 cells (ATCC) were cultivated in RPMI 1640 supplemented with 10% fetal calf serum (FCS), 2 mM L-glutamine and gentamycin at 37° C. in a humidified incubator with 5% CO2.
A2780 cells were seeded at 20.000 cells per well in a 96 well plate, cultured for 24 hours and treated with compound for 16 hours at 37° C. in a humidified incubator. After incubation, the cells were washed once with phosphate-buffered saline and 30 μl, per well, low salt RIPA buffer (20 mM tris, pH7.0, 0.5 mM EDTA, 1% Nonidet P40, 0.5% DOC, 0.05% SDS, 1 mM PMSF, 1 μg/ml aprotinin and 0.5 μ/ml leupeptin) was added. Plates were placed on ice for 30 minutes to complete the lysis. p53 protein was detected in de lysates by using the sandwich ELISA, described below.
High binding polystyrene EIA/RIA 96 well plates (Costar 9018) were coated with the capture antibody pAb1801 (Abcam ab28-100) at a concentration of 1 μg/ml in coating buffer (0.1 M NaHCO3 pH8.2), 50 μl per well. The antibody was allowed to adhere overnight at 4° C. Coated plates were washed once with phosphate-buffered saline (PBS)/0.05% Tween 20 and 300 μl of blocking buffer (PBS, 1% bovine serum albumins (BSA)) was added, for an incubation period of 2 hours at room temperature. Dilutions of purified recombinant HIS tagged p53 protein, ranging from 3-200 ng/ml, were made in blocking buffer and used as standards.
Plates were washed twice with PBS/0.05% Tween 20 and blocking buffer or standards were added at 80 μl/well. To the standards, 20 μl of lysis buffer was added. The samples were added to the other wells at 20 μl lysate/well. After an overnight incubation at 4° C., plates were washed twice with PBS/0.05% Tween 20. Aliquots of 100 μl secondary polyclonal antibody p53(FL-393) (Tebubio, sc-6243) at a concentration of 1 μg/ml in blocking buffer were added to each well and allowed to adhere for 2 hours at room temperature. Plates were washed three times with PBS/0.05% Tween 20. Detection antibody anti-rabbit HRP (sc-2004, Tebubio) at 0.04 μg/ml in PBS/1% BSA was added and incubated for 1 hour at room temperature. Plates were washed three times with PBS/0.05% Tween 20 and 100 μl of substrate buffer was added (substrate buffer was prepared shortly before use by adding 1 tablet of 10 mg o-phenylene diamine (OPD) from Sigma and 125 μl 3% H2O2 to 25 ml OPD buffer: 35 mM citric acid, 66 mM Na2HPO4, pH5.6). After 5 to 10 minutes, colour reaction was stopped by adding 50 μl stop buffer (1 M H2SO4) per well. The absorbance at dual wavelengths of 490/655 nm was measured using a Biorad micro plate reader and the results were then analyzed.
For each experiment, controls (containing no drug) and a blank incubation (containing no cells or drugs) were run in parallel. The blank value was subtracted from all control and sample values. For each sample, the value of p53 (in absorbance units) was expressed as the percentage of the value for p53 present in the control. […]

In series [4] the test system is human prostate cancer cell line DU145. Briefly: Alamar Blue cell proliferation assay, DU145. It counts as cell-based. Particulars: Homo sapiens, DU-145, DU145 cells; read-out: DU145 cell proliferation inhibition pIC50 (converted). How it is done:
as §1, §2, §3

The subject of series [5] is non-small cell lung cancer cell line H1299. The series is described as follows: Alamar Blue cell proliferation assay, H1299. It counts as cell-based. How it is done: as §1, §2, §3
For series [6], the system named is A2780 ovarian cancer cells. Briefly: Alamar Blue cell proliferation assay, A2780. It counts as cell-based, human. Particulars: 4-day incubation; for IC50: Homo sapiens, A2780, 96 h, read-out: A2780 cell proliferation inhibition pIC50 (converted). The method, then:
The human A2780 ovarian cancer cells were a kind gift from Dr. T. C. Hamilton (Fox Chase Cancer Centre, Pennsylvania, U.S.A.). The cells were cultured in RPMI 1640 medium supplemented with 2 mM L-Glutamine, 50 μg/ml gentamicin and 10% fetal calf serum.
Potassium Phosphate Buffer 0.1 M (PPB) was made as follows: 2.72 gram KH2PO4 and 13.86 gram K2HPO4 were dissolved in 500 ml milli-Q H2O, the pH was adjusted to pH 7.4 and the volume was brought to 1 liter with milli-Q H2O; the buffer was filter sterilised and stored at room temperature. Resazurin stock solution (PPB-A) was prepared fresh by dissolving 45 mg resazurin in 15 ml PBS. 30 mM potassium ferricyanide (PPB-B) was prepared by dissolving 0.987 gram potassium ferricyanide in 100 ml PPB. 30 mM potassium ferrocyanide (PPB-C) was prepared by dissolving 1.266 gram potassium ferrocyanide in 100 ml PPB.
Mixture of PPB-A, PPB-B and PPB-C was prepared by mixing equal volumes of the respective solutions. Resazurin work solution (herein termed “Alamar Blue” solution) was prepared by diluting said mixture 20×(vol/vol) in PPB and filter sterilising; the Alamar Blue solution could be kept at 4° C. for a maximum of 2 weeks.
as §1, §2

The structures appear in SMILES notation. A value given as a limit tells only on which side of the number the result lay.

As for `OC1CCc2c(Nc3ccc(NCCc4c[nH]c5ccccc45)cc3)ccnc21` (centres unmarked) [drawing 152, reference compound], the “drug induced neurological side effects” value in series [1] is given as “yes”.
As to `OC1CCc2c(Nc3ccc(NCCc4c[nH]c5ccccc45)cc3)ccnc21` (centres unmarked) [drawing 153, reference compound], the “drug induced neurological side effects” value in series [1] is “yes”.
Consider `C=Cc1ccc2c(CCNc3ccc(Nc4ccnc5c4CCC5O)cc3C)c[nH]c2c1` (centres unmarked) [Compound 14], for which the IC50 was greater than 10000 nM in series [2]; 7240 nM in series [4]; 3980 nM in series [5] (Homo sapiens, NCI-H1299, H1299 cells, read-out: H1299 cell proliferation inhibition pIC50 (converted)); 372 nM in series [6]. For the same compound, the minimal effective concentration in series [3] was 1 µM.
Consider `Cc1cc(Nc2ccnc3c2CCC3O)ccc1NCCc1c[nH]c2c(CCO)cccc12` (single isomer, unassigned) [Compound 13], for which the “HCT116 cell proliferation inhibition pIC50” value in series [2] (HCT116 cells) is 5.61. Moreover, in series [3], the “p53-elisa LAD (lowest dose giving at least 140% of the value for p53 present in the control)” value is 1.00 µM. The “H1299 cell proliferation inhibition pIC50” value in series [5] (H1299 cells) is less than 5. Further, in series [6], the “A2780 cell proliferation inhibition pIC50” value stood at 6.90.
Regarding `COC1CCc2c(Nc3ccc(NCCc4c[nH]c5c(C(C)(C)O)cccc45)cc3)ccnc21` (centres unmarked) [Compound 8], the IC50 in series [2] and in series [6] was 87.1 nM in each case. Besides, the minimal effective concentration in series [3] was 0.1 µM.
As to `Cc1cc(Nc2ccncc2)ccc1NCCc1c[nH]c2ccccc12` [reference compound], the “drug induced neurological side effects” value in series [1] is “yes”.
On to `c1ccc2c(CCNc3ccc(Nc4ccncc4)cc3)c[nH]c2c1` [reference compound], for which, in series [1], the “drug induced neurological side effects” value is recorded as “yes”.
Regarding `Cc1cccc2c(CCNc3ccc(Nc4ccncc4)cc3)c[nH]c12` [reference compound], in series [1], the “drug induced neurological side effects” value is given as “yes”.
